The source of these data is patent US8933290B2, “Mesh implant” (Sofradim Production SAS, priority 2007, dated 2015).

In this test the test system is classical pathway of the complement system. In words: Anti-complement activity, CH50 hemolytic assay in total human serum. The format is biochemical. As to conditions: in solution, sheep erythrocytes. The method, then: The anti-complement activity of fucans was tested via a CH50 test, a standard hemolytic assay in total human serum. Complement activation in human serum was induced by the introduction of sheep erythrocytes coated with rabbit antibodies and then recognized as foreign elements. […] The amount of released hemoglobin was then determined by an optical density (OD) measurement at about 414 nm. The human serum dilution was adjusted for a known amount of erythrocytes, in order to lyse about 50% of the red blood cells (CH50). In order to check the impact of the fucan on the complement activation in solution, the fucan was added with the sheep erythrocytes. […] Heparin (heparin […] 173 UI/mg, Choay-Sanofi) and fucan […] RED synthesized in the Laboratoire de Recherche sur les Macromolecules (LRM, CNRS UMR 7540, France) were also tested instead of fucan.

As for heparin [heparin H108], the “IC50 (median inhibition concentration), anti-complement activity” value is “about 30 μg/mL”.
